Patent US20240391959A1, “BICYCLIC PEPTIDE LIGANDS […] FOR TRANSFERRIN RECEPTOR 1 (TfR1)” (BicycleTx Limited, priority 2020, published 2024)
Where “and” joins values, the source holds several entries; their conditions need not be identical. Equal entries are not always repeated. Starred links: 1 amine or outer side, 2 acyl side, 3 side chain; linkers in the order of their positions; H or OH if unused. Positions of bridges follow the written chain, without caps; N, C: chain ends. Residues, ends and D or L forms follow the SMILES beside them. TATB = O=C(C[*:1])N1CN(C(=O)C[*:2])CN(C(=O)C[*:3])C1

Columns and labels:
Assay type in all cases: binding
[1] = biological target: T1, human TfR1 (Homo sapiens, UniProt P02786); assay: biochemical; set-up: His6-tagged TfR1 (a.a. 89-760) (ACRO Biosystems, CD1-H5243 and TFR-C524a); His6; purchased R&D Systems or Acro Biosystems 2474-TR or CD1-H5243
[2] = biological target: T1, human TfR1; assay: biochemical; set-up: His6-tagged TfR1 (a.a. 89-760) (ACRO Biosystems, CD1-H5243 and TFR-C524a); His6; purchased R&D Systems or Acro Biosystems 2474-TR or CD1-H5243; settings: Human TfR1 Kd (nM)
[3] = biological target: cynomolgus TfR1

T1 sequence (P02786 89-760): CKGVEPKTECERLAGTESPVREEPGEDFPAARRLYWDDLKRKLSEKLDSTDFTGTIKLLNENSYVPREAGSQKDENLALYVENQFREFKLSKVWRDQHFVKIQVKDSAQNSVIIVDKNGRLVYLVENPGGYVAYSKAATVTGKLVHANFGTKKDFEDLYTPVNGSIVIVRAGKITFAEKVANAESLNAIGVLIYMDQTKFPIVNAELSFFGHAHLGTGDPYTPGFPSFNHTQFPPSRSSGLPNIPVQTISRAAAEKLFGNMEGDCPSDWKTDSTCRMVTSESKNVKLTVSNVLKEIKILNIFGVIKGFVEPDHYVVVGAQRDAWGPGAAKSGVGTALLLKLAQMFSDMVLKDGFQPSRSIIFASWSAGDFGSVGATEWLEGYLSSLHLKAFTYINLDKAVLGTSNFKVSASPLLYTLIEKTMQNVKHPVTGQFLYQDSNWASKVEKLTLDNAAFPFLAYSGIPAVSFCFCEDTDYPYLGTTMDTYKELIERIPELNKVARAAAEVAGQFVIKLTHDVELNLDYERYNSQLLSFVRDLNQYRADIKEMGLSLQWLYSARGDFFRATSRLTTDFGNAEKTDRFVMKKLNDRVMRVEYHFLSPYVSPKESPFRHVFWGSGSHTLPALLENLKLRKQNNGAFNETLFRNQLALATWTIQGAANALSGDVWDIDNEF

SMILES | Ki ([1]; Geomean Ki (μM)) [µM] | Ki ([1]; Human TfR1 Ki (nM)) [µM] | Kd [2] [nM] | Kd [3]
CC[C@H](C)[C@@H]1NC(=O)[C@@H]2CSCC(=O)N3CN(CN(C3)C(=O)CSC[C@H](NC(C)=O)C(=O)N[C@@H](CO)C(=O)N3CCC[C@H]3C(=O)N[C@@H](CC(=O)O)C(=O)N[C@@H](C)C(=O)N[C@@H](Cc3c[nH]cn3)C(=O)N[C@@H](CC(C)C)C(=O)NCC(=O)N2)C(=O)CSC[C@@H](C(N)=O)NC(=O)[C@H](Cc2ccc(O)cc2)NC(=O)[C@H](CO)NC1=O [BCY15891, Ac-(SEQ ID NO: 9)] (Ac-CSPDAHLGCISYC-NH2; linker 1-9-13 via TATB) | 0.067 | 0.094 | 46 | 3990 nM
CC[C@H](C)[C@@H]1NC(=O)[C@@H]2CSCC(=O)N3CN(CN(C3)C(=O)CSC[C@@H](C(=O)N[C@@H](C)C(N)=O)NC(=O)[C@H](Cc3cccc4ccccc34)NC(=O)[C@H](CO)NC1=O)C(=O)CSC[C@H](NC(=O)[C@H](C)N)C(=O)N[C@@H](CO)C(=O)N1CCC[C@H]1C(=O)N[C@@H](CC(=O)O)C(=O)N[C@@H](C)C(=O)N[C@@H](Cc1c[nH]cn1)C(=O)N[C@@H](CC(C)C)C(=O)NCC(=O)N2 [BCY16029, A-(SEQ ID NO: 39)-A] | – | – | – | 5480 nM
CC[C@H](C)[C@@H]1NC(=O)[C@@H]2CSCC(=O)N3CN(CN(C3)C(=O)CSC[C@@H](C(=O)N[C@@H](C)C(N)=O)NC(=O)[C@H](Cc3ccc(O)c(C(C)(C)C)c3)NC(=O)[C@H](CO)NC1=O)C(=O)CSC[C@H](NC(=O)[C@H](C)N)C(=O)N[C@@H](CO)C(=O)N1CCC[C@H]1C(=O)N[C@@H](CC(=O)O)C(=O)N[C@@H](C)C(=O)N[C@@H](Cc1c[nH]cn1)C(=O)N[C@@H](CC(C)C)C(=O)NCC(=O)N2 [BCY16079, A-(SEQ ID NO: 37)-A] | – | – | 60 | 5660 nM
CC(C)C[C@@H]1NC(=O)[C@H](Cc2ccc(O)cc2)NC(=O)[C@H](C)NC(=O)[C@H](CC(=O)O)NC(=O)[C@@H]2CCCN2C(=O)[C@@H]2CCCN2C(=O)[C@@H](NC(=O)[C@H](C)N)CSCC(=O)N2CN3CN(C2)C(=O)CSC[C@@H](C(=O)N[C@@H](C)C(N)=O)NC(=O)[C@H](Cc2ccc(O)cc2)NC(=O)[C@H](CO)NC(=O)[C@H](C(C)(C)C)NC(=O)[C@H](CSCC3=O)NC(=O)CNC1=O [BCY16964, A-(SEQ ID NO: 22)-A] | – | – | – | 514 nM
CC[C@H](C)[C@@H]1NC(=O)[C@@H]2CSCC(=O)N3CN(CN(C3)C(=O)CSC[C@H](NC(=O)[C@H](CC(N)=O)NC(=O)[C@H](Cc3c[nH]c4ccccc34)NC(=O)[C@@H](N)CC(N)=O)C(=O)N[C@@H](CO)C(=O)N3CCC[C@H]3C(=O)N[C@@H](CC(=O)O)C(=O)N[C@@H](C)C(=O)N[C@@H](Cc3c[nH]cn3)C(=O)N[C@@H](CC(C)C)C(=O)NCC(=O)N2)C(=O)CSC[C@@H](C(=O)N[C@@H](C)C(N)=O)NC(=O)[C@H](Cc2ccc(O)cc2)NC(=O)[C@H](CO)NC1=O [BCY17109, NWN-(SEQ ID NO: 9)-A] | 0.009 | – | – | 281 nM and 535 nM
CC[C@H](C)[C@@H]1NC(=O)[C@@H]2CSCC(=O)N3CN(CN(C3)C(=O)CSC[C@H](NC(=O)[C@@H](NC(=O)[C@H](CCC(=O)O)NC(=O)[C@@H](N)CC(N)=O)C(C)C)C(=O)N[C@@H](CO)C(=O)N3CCC[C@H]3C(=O)N[C@@H](CC(=O)O)C(=O)N[C@@H](C)C(=O)N[C@@H](Cc3c[nH]cn3)C(=O)N[C@@H](CC(C)C)C(=O)NCC(=O)N2)C(=O)CSC[C@@H](C(=O)N[C@@H](C)C(N)=O)NC(=O)[C@H](Cc2ccc(O)cc2)NC(=O)[C@H](CO)NC1=O [BCY17112, NEV-(SEQ ID NO: 9)-A] | – | – | – | 2600 nM
CC[C@H](C)[C@@H]1NC(=O)[C@@H]2CSCC(=O)N3CN(CN(C3)C(=O)CSC[C@@H](C(=O)N[C@@H](CCC(=O)O)C(=O)N3CCC[C@H]3C(=O)N[C@@H](Cc3c[nH]c4ccccc34)C(N)=O)NC(=O)[C@H](Cc3ccc(O)cc3)NC(=O)[C@H](CO)NC1=O)C(=O)CSC[C@H](NC(=O)[C@H](C)N)C(=O)N[C@@H](CO)C(=O)N1CCC[C@H]1C(=O)N[C@@H](CC(=O)O)C(=O)N[C@@H](C)C(=O)N[C@@H](Cc1c[nH]cn1)C(=O)N[C@@H](CC(C)C)C(=O)NCC(=O)N2 [BCY17114, A-(SEQ ID NO: 9)-EPW] | – | – | – | 845 nM
CC[C@H](C)[C@@H]1NC(=O)[C@@H]2CSCC(=O)N3CN(CN(C3)C(=O)CSC[C@@H](C(=O)N3CCC[C@H]3C(=O)N[C@H](C(=O)N[C@H](C(=O)N[C@@H](Cc3c[nH]cn3)C(N)=O)C(C)C)[C@@H](C)CC)NC(=O)[C@H](Cc3ccc(O)cc3)NC(=O)[C@H](CO)NC1=O)C(=O)CSC[C@H](NC(=O)[C@H](C)N)C(=O)N[C@@H](CO)C(=O)N1CCC[C@H]1C(=O)N[C@@H](CC(=O)O)C(=O)N[C@@H](C)C(=O)N[C@@H](Cc1c[nH]cn1)C(=O)N[C@@H](CC(C)C)C(=O)NCC(=O)N2 [BCY17120, A-(SEQ ID NO: 9)-PIVH] | – | – | – | 1260 nM
CC[C@H](C)[C@@H]1NC(=O)[C@@H]2CSCC(=O)N3CN(CN(C3)C(=O)CSC[C@H](NC(C)=O)C(=O)N[C@@H](C)C(=O)N3CCC[C@H]3C(=O)N[C@@H](CC(=O)O)C(=O)N[C@@H](C)C(=O)N[C@@H](Cc3c[nH]cn3)C(=O)N[C@@H](CC(C)C)C(=O)NCC(=O)N2)C(=O)CSC[C@@H](C(N)=O)NC(=O)[C@H](Cc2ccc(O)cc2)NC(=O)[C@H](CO)NC1=O [BCY17986, Ac-(SEQ ID NO: 24)] | – | – | – | 4660 nM
CC[C@H](C)[C@@H]1NC(=O)[C@@H]2CSCC(=O)N3CN(CN(C3)C(=O)CSC[C@H](NC(C)=O)C(=O)N[C@@H](CO)C(=O)N3CC[C@H]3C(=O)N[C@@H](CC(=O)O)C(=O)N[C@@H](C)C(=O)N[C@@H](Cc3c[nH]cn3)C(=O)N[C@@H](CC(C)C)C(=O)NCC(=O)N2)C(=O)CSC[C@@H](C(N)=O)NC(=O)[C@H](Cc2ccc(O)cc2)NC(=O)[C@H](CO)NC1=O [BCY17988, Ac-(SEQ ID NO: 44)] | 0.272 | 0.213 | 649 | –
CC[C@H](C)[C@@H]1NC(=O)[C@@H]2CSCC(=O)N3CN(CN(C3)C(=O)CSC[C@H](NC(=O)[C@H](CC(N)=O)NC(=O)[C@H](Cc3c[nH]c4ccccc34)NC(=O)[C@H](CC(N)=O)NC(C)=O)C(=O)N[C@@H](CO)C(=O)N3CCC[C@H]3C(=O)N[C@@H](CC(=O)O)C(=O)N[C@@H](C)C(=O)N[C@@H](Cc3c[nH]cn3)C(=O)N[C@@H](CC(C)C)C(=O)NCC(=O)N2)C(=O)CSC[C@@H](C(N)=O)NC(=O)[C@H](Cc2ccc(O)cc2)NC(=O)[C@H](CO)NC1=O [BCY17992, Ac-NWN-(SEQ ID NO: 9)] | – | – | – | 535 nM
CC[C@H](C)[C@@H]1NC(=O)[C@@H]2CSCC(=O)N3CN(CN(C3)C(=O)CSC[C@@H](C(=O)N[C@@H](CCC(=O)O)C(=O)N3CCC[C@H]3C(=O)N[C@@H](Cc3c[nH]c4ccccc34)C(N)=O)NC(=O)[C@H](Cc3ccc(O)cc3)NC(=O)[C@H](CO)NC1=O)C(=O)CSC[C@H](NC(C)=O)C(=O)N[C@@H](CO)C(=O)N1CCC[C@H]1C(=O)N[C@@H](CC(=O)O)C(=O)N[C@@H](C)C(=O)N[C@@H](Cc1c[nH]cn1)C(=O)N[C@@H](CC(C)C)C(=O)NCC(=O)N2 [BCY17994, Ac-(SEQ ID NO: 9)-EPW] | 0.008 | 0.008 | – | 688 nM
CC[C@H](C)[C@@H]1NC(=O)[C@@H]2CSCC(=O)N3CN(CN(C3)C(=O)CSC[C@H](NC(=O)[C@H](CC(N)=O)NC(=O)[C@H](Cc3cccc4ccccc34)NC(=O)[C@H](CC(N)=O)NC(C)=O)C(=O)N[C@@H](CO)C(=O)N3CCC[C@H]3C(=O)N[C@@H](CC(=O)O)C(=O)N[C@@H](C)C(=O)N[C@@H](Cc3c[nH]cn3)C(=O)N[C@@H](CC(C)C)C(=O)NCC(=O)N2)C(=O)CSC[C@@H](C(N)=O)NC(=O)[C@H](Cc2ccc(O)cc2)NC(=O)[C@H](CO)NC1=O [BCY18034, Ac-N[1Nal]N-(SEQ ID NO: 9)] | – | 0.01 | – | 2080 nM
CC[C@H](C)[C@@H]1NC(=O)[C@@H]2CSCC(=O)N3CN(CN(C3)C(=O)CSC[C@H](NC(=O)[C@H](CC(N)=O)NC(=O)[C@@H](Cc3c[nH]c4ccccc34)NC(=O)[C@H](CC(N)=O)NC(C)=O)C(=O)N[C@@H](CO)C(=O)N3CCC[C@H]3C(=O)N[C@@H](CC(=O)O)C(=O)N[C@@H](C)C(=O)N[C@@H](Cc3c[nH]cn3)C(=O)N[C@@H](CC(C)C)C(=O)NCC(=O)N2)C(=O)CSC[C@@H](C(N)=O)NC(=O)[C@H](Cc2ccc(O)cc2)NC(=O)[C@H](CO)NC1=O [BCY18035, Ac-N[dW]N-(SEQ ID NO: 9)] | 0.02 | – | – | 10300 nM
CC[C@H](C)[C@@H]1NC(=O)[C@@H]2CSCC(=O)N3CN(CN(C3)C(=O)CSC[C@@H](C(=O)N[C@@H](CCC(=O)O)C(=O)N3CC[C@H]3C(=O)N[C@@H](Cc3c[nH]c4ccccc34)C(N)=O)NC(=O)[C@H](Cc3ccc(O)cc3)NC(=O)[C@H](CO)NC1=O)C(=O)CSC[C@H](NC(C)=O)C(=O)N[C@@H](CO)C(=O)N1CCC[C@H]1C(=O)N[C@@H](CC(=O)O)C(=O)N[C@@H](C)C(=O)N[C@@H](Cc1c[nH]cn1)C(=O)N[C@@H](CC(C)C)C(=O)NCC(=O)N2 [BCY18037, Ac-(SEQ ID NO: 9)-E[Aze]W] | – | – | – | 1080 nM
CC[C@H](C)[C@@H]1NC(=O)[C@@H]2CSCC(=O)N3CN(CN(C3)C(=O)CSC[C@@H](C(=O)N[C@@H](CCC(=O)O)C(=O)N3CCC[C@@H]3C(=O)N[C@@H](Cc3c[nH]c4ccccc34)C(N)=O)NC(=O)[C@H](Cc3ccc(O)cc3)NC(=O)[C@H](CO)NC1=O)C(=O)CSC[C@H](NC(C)=O)C(=O)N[C@@H](CO)C(=O)N1CCC[C@H]1C(=O)N[C@@H](CC(=O)O)C(=O)N[C@@H](C)C(=O)N[C@@H](Cc1c[nH]cn1)C(=O)N[C@@H](CC(C)C)C(=O)NCC(=O)N2 [BCY18038, Ac-(SEQ ID NO: 9)-E[dP]W] | – | – | – | 1650 nM
